# Reference: US10144726B2, “Modulators of the p70S6 kinase for use in the treatment of brain disorders and triple-negative breast cancer” (SENTINEL ONCOLOGY LIMITED, priority 2015, dated 2018)
# Like-named read-outs stand apart in the source and are kept apart here.
# How the values were obtained:
# MDA-MB-231 cells = assay: Tumour initiation and metastasis in an in vivo model of triple negative breast cancer (MDA-MB-231, mammary fat pad); parameters: species or system female athymic nude mice
# Description: In order to test the efficacy of an inhibitor of S6K1 in an in vivo model of tumour initiation and metastasis, the following experiment was established:
# A total of 30 female athymic nude mice (Hsd:Athymic Nude-Foxn1^nu) were purchased from Harlan (UK) and acclimatised for 7 days prior to study commencement. Animals were housed in IVC cages (5 per cage) with individual mice identified by ear punch. All animals were allowed free access to a standard certified commercial diet and sanitised water during the study. The holding room was maintained under standard conditions: 20-24° C., 40-70% humidity and a 12 h light/dark cycle.
# On day −1, animals were randomly assigned to treatment groups as indicated in the table below, and drug treatment commenced. On day 0, MDA-MB-231 cells (1×10^6 in matrigel) were implanted into the second mammary fat pad.
# The dosing route was PO and the formulation was as follows: 10% DMSO/90% hydroxypropyl-β-cyclodextrin (20% w/v aqueous)
# (1) Time to palpation of tumour (latency) (2) tumour volume (3) tumour and organ weights as a measure of metastasis (4) visual appearance of metastatic nodules in the lungs
# [1] = Brain and plasma concentrations in an in vivo cassette mouse model; parameters: species or system male CD-1 mice; conditions: male, PO cassette, 2.5 mg/kg per compound
# Method: The compounds of this invention were evaluated in an in vivo cassette mouse model to determine brain and plasma concentrations following oral dosing. This is an industry-standard and recognised means to assess brain penetration of small molecules (for recent literature article, refer to In vitro permeability analysis, pharmacokinetic and brain distribution study in mice of imperatorin, isoimperatorin and cnidilin in Radix Angelicae Dahuricae, Fitoterapia, Volume 85, March 2013 , Pages 144-153). It is also recognised that higher brain concentrations (and higher ratios of brain: plasma concentration) lead to greater exposure in the brain—this is clearly advantageous if the brain is the site of action.
# For a single cassette study, male CD-1 mice were used (n=3 per timepoint, two timepoints: 1.0 hr and 3.0 hr).
# 5 compounds were dosed PO per cassette (dose level 2.5 mg/kg per compound, dose conc. 0.25 mg/ml, dose volume 10.0 ml/kg).
# Formulation used to solubilize compounds: 10% DMSO/90% hydroxypropyl-β-cyclodextrin (20% w/v aqueous)
# Sampling was terminal and plasma and brain matrices were generated. To prepare plasma samples, protein was precipitated using acetonitrile. To prepare brain samples, homogenisation and protein precipitation was performed with acetonitrile. Samples were analysed using HPLC-TOF MS using electrospray ionisation.
# MDA-MB-231 (luc) cells = assay: Control of brain metastases arising from MDA-MB-231 (luc) cells after intra-cardiac injection; format: in vivo
# Description: In order to test the efficacy of an inhibitor of S6K1 in preventing brain metastases arising from TNBC cells, an in vivo mouse model was established:
# Using a luciferase-tagged TNBC cell line (MDA-MB-231 (luc)) it was possible to track the spread of metastatic cells to the brain and other major organs via mouse whole-body imaging.
# The MDA-MB-231(luc) cell-line was derived from MDA-MB-231 cells originally purchased from ATCC. These cells were stably transfected with pGL4.51 (Promega) using Lipofectamine 2000 (Life Technologies). Stably transfected colonies were selected for using neomycin and the most highly expressing clone was expanded. The cells have similar in vivo growth characteristics as the parental MDA-MB-231 cells.
# Female athymic mice (Hsd:Athymic Nude-Foxn1^nu) were purchased from Harlan (UK) and acclimatised for 7 days prior to study commencement. Animals were housed in
# The dosing route was p.o. and the formulation was as follows: 10% DMSO/90% hydroxypropyl-β-cyclodextrin (20% w/v aqueous)
# On day 0 animals were anaesthetized and injected with 1×10^5 MDA-MB-231 (luc) cells directly into the heart. Intra-cardiac injection was chosen as this method leads to brain metastases. On day +1 animals were imaged using a Xenogen IVIS machine (following IP injection of 150 mg/kg) of D-luciferin). Evidence of light only in the cardiac area was indicative of a failed implantation and these animals were removed from the study. The experiment was commenced with 7 animals per treatment group to guarantee 5 animals per group completed the study.
# Animals were imaged on 3 occasions during the study: 24 hours following intracardiac injection, 35 days after implantation and at the end of the study (70 days after implantation). For imaging, animals were first injected i.p. with D-luciferin (150 mg/kg) and 10 minutes later the animals were imaged under anaesthesia.
# At the end of the 70 days, animals were imaged using the same method as described at 35 days. Following this the animals were then sacrificed and brain, liver and lungs were removed and imaged individually for metastatic spread.
# [2] = 250 mg/kg p.o. QD 21 days, vs vehicle
smiles,measurement,setting,value
C[C@@H](Nc1cnc2cc(-c3cn[nH]c3)ccc2n1)c1cccc(Cl)c1 [Example 15],Mean no. of nodules per lung,"MDA-MB-231 cells; 250 mg/kg QD × 21, at necroscopy",1
same,Lung weight at day 21,MDA-MB-231 cells; [2],reduction in weight of lungs
same,Rate of tumour incidence,MDA-MB-231 cells; [2],decreases
same,Time to palpation of tumour (latency),MDA-MB-231 cells; [2],delays
same,Tumour weight at day 21,MDA-MB-231 cells; [2],weighed significantly less
same,Tumour volume,"MDA-MB-231 cells; 250 mg/kg p.o. QD 21 days, vs vehicle, p<0.05",reduction in volume of tumours which is statistically significant over vehicle
same,concentration at 3 h,"[1]; CD-1, brain, read-out: (d) Brain conc. at 3 hours",2430 nM
same,Kp at 3 h,"[1]; CD-1, brain, read-out: (d) Brain: Plasma ratio at 3 hours",2
same,concentration at 3 h,"[1]; CD-1, plasma, read-out: (d) Plasma conc. at 3 hours",1190 nM
same,Incidence of metastasis Brain,MDA-MB-231 (luc) cells; 125 mg/kg p.o. BID x 70 days,0%
same,Incidence of metastasis Liver,MDA-MB-231 (luc) cells; 125 mg/kg p.o. BID x 70 days,0%
same,Incidence of metastasis Lung,MDA-MB-231 (luc) cells; 125 mg/kg p.o. BID x 70 days,40%
same,No. deaths on study,MDA-MB-231 (luc) cells; 125 mg/kg p.o. BID x 70 days,0
same,"Animals with visible metastases, whole body imaging","MDA-MB-231 (luc) cells; 125 mg/kg p.o. BID, at 35 days",0 out of 5
same,Tolerability,"MDA-MB-231 (luc) cells; 70 consecutive days of BID dosing, no treatment related deaths or adverse clinical signs",well-tolerated
